Reference: patent US20140018432A1, “ELECTROCHEMICAL GENERATION OF CHLORINATED UREA DERIVATIVES” (Hercules Incorporated, priority 2012, published 2014)

Columns and labels:
[1] = Stability of aqueous solutions of the chlorinated ureas; type: physicochemical
microorganisms = experiment: Microbiological studies (biocidal activity); conditions: no details given

Row | SMILES | stability compared with N-chlorourea [1] | stability of solution ([1]; basic solutions (pH 12 and higher, flow cell without membrane)) | stability of solution ([1]; neutral or acidic environment) | biocidal activity (microorganisms)
1 | CNC(=O)N(C)Cl [N-chloro-N,N′-dimethylurea] | significantly more stable than N-chlorourea | not stable | significantly more stable | potent biocides
2 | NC(=O)NCl [N-chlorourea] |  |  |  | potent biocides
